Patent US20150232509A1, “SPIRO RING COMPOUNDS AS HEPATITIS C VIRUS (HCV) INHIBITORS” (SUNSHINE LAKE PHARMA CO., LTD., priority 2012, published 2015)

What was measured:
HCV GT1b replicon cells = assay: HCV Replicon assay, GT1b replicon cells (Luciferase / NEO qPCR); type: cell-based; details: Hepatitis C virus, 72 hours incubation, read-out: EC50 against HCV 1b genotype
Procedure: (§1) An HCV Replicon assay was utilized in the present invention, and was prepared, developed and validated as described in Science, 1999, 285 (5424), 110-3 and J. Virol., 2003, 77 (5), 3007-19.
(§2) HCV GT1a, GT1b and GT2a replicon cells were used to test the currently described compound series as well as wild-type cells HCV 1b and resistant cells Y93H, L31F, P32L and 1302V. […]
(§3) The GT1a cells and GT1b cells were seeded into 96-well plates (8,000 cells in 125 μL/well) respectively; each compound was diluted to desired concentration using 5-fold serial dilutions protocol, 10 doses in duplicate, and added to wells with POD™ 810 Plate Assembler. The final concentration of DMSO was 0.5%; the plates were incubated in a CO2 incubator for 72 hours; after that, 40 μL of Luciferase assay substrate (Promega Bright-Glo) was added to each well, and detected by a chemiluminescence detection system (Topcount Microplate Scintillation and Luminescence Counter) 5 minutes later; data analysis.
(§4) The GT1a cells and GT1b cells were seeded into 96-well plates (8,000 cells in 125 μL/well) respectively; each compound was diluted to desired concentration using 5-fold serial dilutions protocol, 10 doses in duplicate, and added to wells with POD™ 810 Plate Assembler., the final concentration of DMSO was 0.5%; the cells were incubated in a CO2 incubator for 72 hours; quantitative PCR. • Sample preparation: the supernatant was removed, 100 μL of FCW buffer solution was added to each well, washed carefully and discarded the solution; 50 μL of lysate FCP was added to each well, the cells was lysed as PCR template and PCR template was diluted with DEPC water as sample template. • Quantitative PCR: preparation of reaction mixture according to PCR system; the reaction mixture was dispensed into a 384-well PCR reaction plate (specially for quantitative); and a standard template which was diluted in proportion was distributed into the plate; and the sample template was distributed into the plate; then the 384-well plate was sealed with closure plate membrane; the […] PCR machine was operated by procedures; data analysis. 3. Data Processing: the EC50 Values of Compounds were Analyzed by GraphPad Prism Software.

HCV GT1a replicon cells = assay: HCV Replicon assay, GT1a replicon cells (Luciferase / NEO qPCR); type: cell-based; details: Hepatitis C virus, 72 hours incubation, read-out: EC50 against HCV 1a genotype
Procedure: as §1, §2, §3, §4

Row | SMILES | EC50 (HCV GT1b replicon cells) [nM] | EC50 (HCV GT1a replicon cells) [nM]
1 | COC(=O)N[C@H](C(=O)N1CC2(CC2)C[C@H]1c1ncc(-c2ccc(-c3ccc(-c4ccc(-c5cnc([C@@H]6CC7(CC7)CN6C(=O)[C@@H](NC(=O)OC)C(C)C)[nH]5)cc4)c4c3CCC43CCCC3)cc2)[nH]1)C(C)C [Example 22] | 0.876 | 3.65
2 | COC(=O)N[C@H](C(=O)N1CCC[C@H]1c1nc2ccc(-c3ccc(-c4ccc5nc([C@@H]6CCCN6C(=O)[C@@H](NC(=O)OC)C(C)C)[nH]c5c4)c4c3CCC43CCC3)cc2[nH]1)C(C)C [Example 40] | 0.017 | 0.043
3 | COC(=O)N[C@H](C(=O)N1CCC[C@H]1c1ncc(-c2ccc(-c3ccc(-c4cnc([C@@H]5CCCN5C(=O)[C@@H](NC(=O)OC)C(C)C)[nH]4)c4c3C3(CC4)CCC(C)CC3)s2)[nH]1)C(C)C (some centres unmarked) [Example 44] | 0.937 | 13.7
4 | COC(=O)N[C@H](C(=O)N1CC(C)=C[C@H]1c1ncc(-c2ccc(-c3ccc(-c4cnc([C@@H]5C=C(C)CN5C(=O)[C@@H](NC(=O)OC)C(C)C)[nH]4)c4c3C3(CCCC3)CC4)cc2)[nH]1)C(C)C [Example 35] | 0.086 | 0.518
5 | CC(C)[C@H](NC(=O)OC(C)(C)C)C(=O)N1CCC[C@H]1c1ncc(-c2ccc(C3CCC(c4cnc([C@@H]5CCCN5C(=O)[C@@H](NC(=O)OC(C)(C)C)C(C)C)[nH]4)CC3)c3c2CCC32CCCC2)[nH]1 (some centres unmarked) [Example 10] | 3.46 | 9.86
6 | COC(=O)N[C@H](C(=O)N1CCC[C@H]1c1ncc(-c2ccc(-c3ccc(-c4ccc5[nH]c([C@@H]6CCCN6C(=O)[C@@H](NC(=O)OC)C(C)C)nc5c4)c4c3CCC43CCCC3)cc2)[nH]1)C(C)C [Example 4] | 0.029 | 0.085
7 | COC(=O)N[C@H](C(=O)N1C[C@@H](C)C[C@H]1c1ncc(-c2ccc(-c3ccc(-c4cnc([C@@H]5C[C@H](C)CN5C(=O)[C@@H](NC(=O)OC)C(C)C)[nH]4)c4c3C3(CCCC3)CC4)cc2)[nH]1)C(C)C [Example 14] | 0.011 | 0.785
8 | COC(=O)N[C@H](C(=O)N1C2CCC(C2)[C@H]1c1ncc(-c2ccc(-c3ccc(-c4ccc5nc([C@@H]6C7CCC(C7)N6C(=O)[C@@H](NC(=O)OC)C(C)C)[nH]c5c4)c4c3C3(CCCC3)CC4)cc2)[nH]1)C(C)C (some centres unmarked) [Example 33] | 0.039 | 0.09
9 | COC(=O)N[C@H](C(=O)N1CCC[C@H]1c1ncc(-c2ccc(-c3ccc(-c4ccc5nc([C@@H]6CCCN6C(=O)[C@@H](NC(=O)OC)C(C)C)[nH]c5c4)c4c3CCC43CCCC3)c3cnoc23)[nH]1)C(C)C [Example 46] | 0.118 | 0.388
10 | COC(=O)N[C@H](C(=O)N1CCC[C@H]1c1ncc(-c2ccc(-c3ccc(-c4cnc([C@@H]5CCCN5C(=O)[C@@H](NC(=O)OC)C(C)C)[nH]4)c4c3C3(CCC4)CCN(C)C3)cc2)[nH]1)C(C)C (some centres unmarked) [Example 50] | 0.096 | 0.875
11 | COC(=O)N[C@H](C(=O)N1C[C@@H](C)C[C@H]1c1nc(-c2ccc(-c3ccc(-c4ccc(-c5c[nH]c([C@@H]6C[C@H](C)CN6C(=O)[C@@H](NC(=O)OC)C(C)C)n5)cc4)c4c3CCC43CCCC3)cc2)c[nH]1)C(C)C [Example 21] | 0.98 | 4.88
12 | COC(=O)N[C@H](C(=O)N1CCC[C@H]1C1=Nc2ccc(-c3cnc(-c4ccc(-c5cnc([C@@H]6CCCN6C(=O)[C@@H](NC(=O)OC)C(C)C)[nH]5)cc4)c4c3CCC43CCCC3)cc2S(=O)(=O)N1)C(C)C [Example 39] | 0.02 | 0.027
13 | COC(=O)N[C@H](C(=O)N1CCC[C@H]1c1nc(-c2ccc(-c3ccc(-c4ccc(-c5cnc([C@@H]6CCCN6C(=O)[C@@H](NC(=O)OC)C(C)C)[nH]5)cc4)c4c3CCC43CCCC3)cc2)c[nH]1)C(C)C [Example 6] | 0.208 | 1.37
14 | COC(=O)N[C@H](C(=O)N1CCC[C@H]1c1ncc(-c2ccc(-c3ccc(-c4ccc5[nH]c([C@@H]6CCCN6C(=O)[C@@H](NC(=O)OC)C(C)C)nc5c4)c4c3C3(CCCC3)CC4)cc2)[nH]1)C(C)C [Example 3] | 0.032 | 0.097
15 | COC(=O)N[C@@H](C)C(=O)N1CCCC[C@H]1c1ncc(-c2ccc(-c3ccc(-c4cnc([C@@H]5CCCCN5C(=O)[C@H](C)NC(=O)OC)[nH]4)c4c3C3(CCCC3)CC4)cc2)[nH]1 [Example 27] | 0.655 | 12.7
16 | COC(=O)N[C@H](C(=O)N1CCC[C@H]1c1ncc(C#Cc2ccc(C#Cc3cnc([C@@H]4CCCN4C(=O)[C@@H](NC(=O)OC)C(C)C)[nH]3)c3c2CCC32CCCC2)[nH]1)C(C)C [Example 7] | 0.106 | 0.955
17 | COC(=O)N[C@H](C(=O)N1CCC[C@H]1c1ncc(-c2ccc(-c3ccc(-c4ccc5nc([C@@H]6CCCN6C(=O)[C@@H](NC(=O)OC)C(C)C)[nH]c5c4)c4c3CCCC43CCCC3)nc2)[nH]1)C(C)C [Example 45] | 0.034 | 0.107
18 | COC(=O)N[C@H](C(=O)N1C2CC2C[C@H]1c1ncc(-c2ccc(-c3ccc(-c4ccc5nc([C@@H]6CC7CC7N6C(=O)[C@@H](NC(=O)OC)C(C)C)[nH]c5c4)c4c3C3(CCCC3)CC4)cc2)[nH]1)C(C)C (some centres unmarked) [Example 32] | 0.077 | 0.064
19 | COC(=O)N[C@H](C(=O)N1CCC[C@H]1c1ncc(-c2ccc(-c3ccc(-c4ccc5nc([C@@H]6CCCN6C(=O)[C@@H](NC(=O)OC)c6ccccc6)[nH]c5c4)c4c3C3(CCCC3)CC4)cc2)[nH]1)c1ccccc1 [Example 19] | 0.011 | 0.376
20 | COC(=O)N[C@H](C(=O)N1CCC[C@H]1c1ncc(-c2ccc(-c3ccc(-c4ccc5nc([C@@H]6CCCN6C(=O)[C@@H](NC(=O)OC)C(C)C)[nH]c5c4)c4c3CCC43CCCC3)c3ccccc23)[nH]1)C(C)C [Example 37] | 0.099 | 3.78
21 | COC(=O)N[C@H](C(=O)N1CCC[C@H]1c1nc(-c2ccc(-c3ccc(-c4c[nH]c([C@@H]5CCCN5C(=O)[C@@H](NC(=O)OC)C(C)C)n4)c4c3C3(CCCC3)CC4)cc2)c[nH]1)C(C)C [Example 2] | 0.009 | 0.325
22 | CCC(C)[C@H](NC(=O)OC)C(=O)N1CCC[C@H]1c1nc2ccc(-c3ccc(-c4ccc(-c5cnc([C@@H]6CCCN6C(=O)[C@@H](NC(=O)OC)C(C)C)[nH]5)cc4)c4c3CCC43CCCC3)cc2[nH]1 (some centres unmarked) [Example 9] | 0.032 | 0.097
23 | COC(=O)N[C@H](C(=O)N1CCC[C@H]1c1ncc(-c2ccc(-c3ccc(-c4cnc([C@@H]5CCCN5C(=O)[C@@H](NC(=O)OC)c5ccccc5)[nH]4)c4c3C3(CC4)CCN(C)CC3)cc2)[nH]1)c1ccccc1 [Example 43] | 0.148 | 7.28
24 | COC(=O)N[C@H](C(=O)N1CCC[C@H]1c1ncc(C#Cc2ccc(-c3ccc(-c4cnc([C@@H]5CCCN5C(=O)[C@@H](NC(=O)OC)C(C)C)[nH]4)cc3)c3c2CCC32CCCC2)[nH]1)C(C)C [Example 13] | 0.032 | 0.438
25 | COC(=O)N[C@H](C(=O)N1CCC[C@H]1c1ncc(-c2ccc(-c3sc(-c4cnc([C@@H]5CCCN5C(=O)[C@@H](NC(=O)OC)C(C)C)[nH]4)c4c3C3(CCCC3)CC4)cc2)[nH]1)C(C)C [Example 47] | 0.687 | 3.57
26 | COC(=O)N[C@H](C(=O)N1CCC[C@H]1c1ncc(-c2ccc(-c3ccc(-c4cnc([C@@H]5CCCN5C(=O)[C@@H](NC(=O)OC)C(C)C)[nH]4)c4c3C3(CCCN3C)CC4)cc2)[nH]1)C(C)C (some centres unmarked) [Example 49] | 0.357 | 23.6
27 | COC(=O)N[C@H](C(=O)N1CCC[C@H]1c1ncc(-c2ccc(-c3ccc(-c4ccc5nc([C@@H]6CCCN6C(=O)[C@@H](NC(=O)OC)C(C)C)[nH]c(=O)c5c4)c4c3C3(CCCC3)CC4)cc2)[nH]1)C(C)C [Example 38] | 0.009 | 0.066
28 | COC(=O)N[C@H](C(=O)N1CCC[C@H]1c1ncc(-c2ccc(-c3ccc(-c4cnc([C@@H]5CC6(CN5C(=O)[C@@H](NC(=O)OC)C(C)C)OCCO6)[nH]4)c4c3C3(CCCC3)CC4)cc2)[nH]1)C(C)C [Example 31] | 0.048 | 4.68
